These results are taken from EP2910242B1, “DURABLE […] SEBACOYL DI[…]-PLGA CONTROLLED RELEASE FORMULATION” (Hu, Oliver Yaopu, priority 2012, dated 2014).

For data set [1] the following is noted: subcutaneous injection of PLGA microspheres containing the drug; 50 mg/rabbit; cited from earlier work.
The nature of data set [2]: oil-in-water coefficient (logP).
Data set [3] can be described thus: drug saturated solubility in water.

Each structure is given as a SMILES string. Values after ≈ are worked out from the molar mass of the structure shown. Structures can show the parent of a compound that is named as a salt. Where two headings read alike, the source gives them in different places.

As usually defined, the logP is the decadic logarithm of the partition coefficient of the neutral form, usually between octanol and water. By solubility is commonly meant how much of the substance goes into solution per volume. A higher solubility goes with a readily soluble substance. For `CCC(=O)Oc1ccc2c3c1O[C@H]1[C@@H](O)CC[C@@]4(O)[C@@H](C2)N(CC2CCC2)CC[C@]314` [Nalbuphine propionate], the “time the effective serum concentration lasted” value in data set [1] is on record as 4 days. For the same compound, the logP in data set [2] came out at 1.05. Further, the solubility in data set [3] amounted to 44.7 µg/mL (≈ 108 µM).

On to `CCCCCCCCCC(=O)Oc1ccc2c3c1O[C@H]1[C@@H](O)CC[C@@]4(O)[C@@H](C2)N(CC2CCC2)CC[C@]314` [Nalbuphine decanoate], for which the “time the effective serum concentration lasted” value in data set [1] is given as 4 days. For the same compound, the lipophilicity (logP) in data set [2] was 3.3. The compound further gave a solubility in data set [3] of 0.67 µg/mL (≈ 1.31 µM).

As for `Oc1ccc2c3c1O[C@H]1[C@@H](O)CC[C@@]4(O)[C@@H](C2)N(CC2CCC2)CC[C@]314` [Nalbuphine HCl], the solubility in data set [3] (water) was over 25000 µg/mL.

`CC(C)(C)C(=O)Oc1ccc2c3c1O[C@H]1[C@@H](O)CC[C@@]4(O)[C@@H](C2)N(CC2CCC2)CC[C@]314` [Nalbuphine pivalate]: the “time the effective serum concentration lasted” value in data set [1] is 4 days. The compound further showed a logP in data set [2] of 1.42. The same compound had a solubility in data set [3] of 33.7 µg/mL (≈ 76.3 µM).

On to `CCCCCCC(=O)Oc1ccc2c3c1O[C@H]1[C@@H](O)CC[C@@]4(O)[C@@H](C2)N(CC2CCC2)CC[C@]314` [Nalbuphine enanthate], for which the logP in data set [2] came out at 1.94. Also, the solubility in data set [3] worked out at 3 µg/mL (≈ 6.39 µM).

Consider `O=C(CCCCCCCCC(=O)Oc1ccc2c3c1O[C@H]1[C@@H](O)CC[C@@]4(O)[C@@H](C2)N(CC2CCC2)CC[C@]314)Oc1ccc2c3c1O[C@H]1[C@@H](O)CC[C@@]4(O)[C@@H](C2)N(CC2CCC2)CC[C@]314` [Sebacoyl dinalbuphine ester], for which the logP in data set [2] was 3.15. The compound also returned a solubility in data set [3] of under 0.25 µg/mL.
